The source of these data is patent US20180319865A1, “Identification of Novel Small Molecule Beta2 Integrin Agonists” (Rush University Medical Center, priority 2016, published 2018).

T1 sequence (P11215 17-1152 E336A): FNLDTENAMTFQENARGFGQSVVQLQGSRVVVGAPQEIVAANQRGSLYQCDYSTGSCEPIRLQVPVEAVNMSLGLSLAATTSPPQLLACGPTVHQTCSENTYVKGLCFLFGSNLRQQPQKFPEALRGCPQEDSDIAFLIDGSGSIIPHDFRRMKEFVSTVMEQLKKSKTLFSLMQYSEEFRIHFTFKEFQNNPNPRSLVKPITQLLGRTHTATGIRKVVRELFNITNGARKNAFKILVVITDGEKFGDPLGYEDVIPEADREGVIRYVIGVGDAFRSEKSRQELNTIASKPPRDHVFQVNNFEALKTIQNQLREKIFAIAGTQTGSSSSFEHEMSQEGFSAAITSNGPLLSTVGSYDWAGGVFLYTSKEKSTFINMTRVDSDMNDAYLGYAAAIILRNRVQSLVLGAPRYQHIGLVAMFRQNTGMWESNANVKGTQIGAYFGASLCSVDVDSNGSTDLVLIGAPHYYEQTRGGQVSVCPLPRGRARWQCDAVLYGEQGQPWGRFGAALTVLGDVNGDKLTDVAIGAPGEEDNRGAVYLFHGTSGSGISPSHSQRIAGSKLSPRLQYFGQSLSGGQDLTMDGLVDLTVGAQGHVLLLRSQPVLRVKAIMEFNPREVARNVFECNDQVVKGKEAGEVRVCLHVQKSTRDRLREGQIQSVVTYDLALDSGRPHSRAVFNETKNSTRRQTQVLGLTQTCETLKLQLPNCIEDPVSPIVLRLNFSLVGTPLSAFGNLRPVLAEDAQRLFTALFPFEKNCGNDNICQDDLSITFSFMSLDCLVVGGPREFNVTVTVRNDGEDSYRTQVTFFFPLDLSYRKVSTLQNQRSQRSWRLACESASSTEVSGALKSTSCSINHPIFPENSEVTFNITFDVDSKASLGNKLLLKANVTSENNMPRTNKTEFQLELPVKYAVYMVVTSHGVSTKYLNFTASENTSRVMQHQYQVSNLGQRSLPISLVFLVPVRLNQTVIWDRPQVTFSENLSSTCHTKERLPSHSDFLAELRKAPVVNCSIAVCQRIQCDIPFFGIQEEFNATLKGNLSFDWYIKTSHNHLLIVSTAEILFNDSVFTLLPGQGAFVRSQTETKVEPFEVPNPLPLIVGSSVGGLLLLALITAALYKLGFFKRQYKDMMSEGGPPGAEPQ
T1 sequence (P05107 23-769 partner): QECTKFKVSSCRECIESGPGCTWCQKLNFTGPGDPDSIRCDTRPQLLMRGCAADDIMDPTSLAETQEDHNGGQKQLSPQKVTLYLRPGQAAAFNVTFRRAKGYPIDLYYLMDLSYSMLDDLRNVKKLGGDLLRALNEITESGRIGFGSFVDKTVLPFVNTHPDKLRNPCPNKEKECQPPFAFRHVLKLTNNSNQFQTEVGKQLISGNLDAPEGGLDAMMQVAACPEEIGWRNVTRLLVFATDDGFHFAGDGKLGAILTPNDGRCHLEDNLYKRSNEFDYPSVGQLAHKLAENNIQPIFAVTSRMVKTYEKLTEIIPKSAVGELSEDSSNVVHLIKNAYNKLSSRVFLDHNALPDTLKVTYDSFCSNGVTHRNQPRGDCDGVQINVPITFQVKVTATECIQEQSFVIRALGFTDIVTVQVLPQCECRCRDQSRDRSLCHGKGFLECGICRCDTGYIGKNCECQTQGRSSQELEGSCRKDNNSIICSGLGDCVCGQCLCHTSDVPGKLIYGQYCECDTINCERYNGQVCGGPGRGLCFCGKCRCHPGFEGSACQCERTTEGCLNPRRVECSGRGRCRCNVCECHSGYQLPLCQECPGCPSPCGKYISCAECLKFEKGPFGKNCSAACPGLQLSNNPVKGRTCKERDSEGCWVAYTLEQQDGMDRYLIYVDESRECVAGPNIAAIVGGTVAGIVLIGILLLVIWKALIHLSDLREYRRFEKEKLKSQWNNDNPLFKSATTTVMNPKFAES

This experiment concerns the target T1, mutant integrin CD11bE320A/CD18 (Homo sapiens, UniProt P11215, E336A).
T1 construct: expressed in transfected cells; host or cells: K562 (ATCC)
Nature of the experiment: HTS cell adhesion assay, K562 E320A cells on immobilized fibrinogen. Format: cell-based. As to conditions: Table 3, adhesion to fibrinogen, five point dose-response. Here is the method: K562 cells stably expressing CD11c/CD18 (K562 CD11c/CD18) were generated similarly. […] K562 cells stably transfected with mutant integrin CD11bE320A/CD18 (K562 E320A) were generated according to literature protocols. All cell lines were maintained in Iscove's Modified Dulbecco's Medium (IMDM) supplemented with 10% heat-inactivated fetal bovine serum, 50 IU/mL penicillin and streptomycin and 0.5 mg/mL G418.
Cell adhesion assays with immobilized ligands were performed using the general protocol previously described and as illustrated in FIG. 1 [33]. Assays with all different K562 cell lines (K562, K562 CD11b/CD18, K562 CD11c/CD18 and K562 E320A) were performed in an identical fashion. Briefly, 384-well microplates (Corning 3700) were coated with 15 μg/mL fibrinogen (Fg) ligand in PBS^++ overnight at 4° C. At the same time, anti-CD18 (IB4) mAb was also coated. Subsequently, the coated wells were washed with 1% nonfat milk in TBS at room temperature for 1 hour. Next, the wells were washed 3 times with TBS, and the coated microplates were used in the HTS assays.
K562 CD11b/CD18, K562 CD11bE320A/CD18 and K562 CD11c/CD18 cells were washed with TBS, and cells were transferred to the Fg-coated wells of microplates in the assay buffer (Ca^2+ and Mg^2+ for physiological condition, Mn^2+ as the Positive control). A 1 μL aliquot of the compounds were transferred to each washed well with multichannel pipet from the 384-well plates.
The assay plates were incubated at 37° C. in the presence of small-molecule compounds for 30 min. To dislodge the non-adherent cell, the assay plates were gently inverted and kept in inverted position for 20 min at room temperature.
The cells were fixed with 37% formaldehyde in a small volume and the plates were kept inverted for 1 h. Upon the fixation, the solutions in the well were discarded. Next, the cells were fluorescently labeled with DAPI (0.5 μM final in TBS with 0.1% Triton X-100) and the quantitated with “Opera High Content Screening System” (Perkin Elmer).
Cell-adhesion under positive and negative control conditions was used to define the activity scale; signal corresponding to the number of non-small molecule treated cells adherent in activating buffer condition (in the presence of Mn^2+ ions as agonist, PC) was considered maximum (100% binding) and the signal corresponding to the number of non-small molecule treated cells adherent in basal buffer condition (in the presence of 1 mM each of Ca^2+ and Mg^2+, NC) was considered minimum (0% binding).
As for `O=C(Cc1coc2cc3c(cc12)CCC3)OCc1cc(=O)n2c(n1)sc1ccccc12` [Compound 3000165], the midpoint of the response, the EC50, lay at 9.02 µM.

Consider `O=C(CNS(=O)(=O)c1cccc(Cl)c1)Nc1ccc(-c2nc3ccccc3s2)cc1` [Compound 984329], for which the EC50 is 9.23 µM.

On to `COc1ccc(N(CC(=O)N/N=C/c2ccc(-c3ccc([N+](=O)[O-])cc3)o2)S(=O)(=O)c2ccc(C)cc2)cc1` [Compound 5334631], for which the concentration for a half-maximal effect (EC50) is 13 µM. This EC50 and that of the molecule before are within 1.5-fold of each other.

Turning to `Cc1cc(C)c(NC(=O)Cn2c(=O)n(Cc3ccco3)c(=O)c3ccccc32)c(C)c1` [Compound 3237376], the EC50 amounted to 12.2 µM.

`Cc1cc(C)cc(NC(=O)Cn2c(=O)oc3cc(S(=O)(=O)N4CCC(C)CC4)ccc32)c1` [Compound 9551541] displayed an EC50 of 8.23 µM.

`CCCCn1c(=O)[nH]c(=O)c2c1nc(-c1ccc(-c3ccccc3Br)o1)n2CCOC` [Compound 3908086] showed an EC50 of 12.2 µM.

The molecule `COc1ccccc1CNC(=O)c1ccc2nc3[nH]c4ccccc4c3nc2c1` [Compound 6079611] registered an EC50 of 9.05 µM.

In turn, `COc1ccc(NC(=O)CCC(=O)OCC(=O)c2ccc(Oc3ccc([N+](=O)[O-])cc3)cc2)cc1` [Compound 2912337] yielded a half-maximal effective concentration (EC50) of 12.4 µM.

`COc1ccc(/C=C2/C(=O)N(c3nc4ccccc4s3)N=C2CSc2ccc(Cl)cc2)cc1` [Compound 5727347] returned an EC50 of 10.2 µM.

In the case of `COc1ccc(C(=O)Nc2ccc(N3CCN(c4ccc(OC)cc4)CC3)c(C#N)c2)cc1` [Compound 3241486], it took 9.08 µM to reach a half-maximal effect (EC50).

For the molecule `Cc1ccc(-c2cc(C(=O)Nc3ccc(S(=O)(=O)Nc4nccs4)cc3)c3ccccc3n2)c(C)c1` [Compound 1358622], the EC50 came to 13.7 µM.

`O=C(CNC(=O)c1cc2c(s1)CCC2)Nc1ccccc1Br` [Compound 2537029] registered an EC50 of 8760 µM.

Molecule `Cc1cc(C=C2C(=O)N(C)C(=S)N(C)C2=O)c(C)n1C1CCCCC1` [Compound 1347165] had an EC50 of 171 µM.

On to `Cn1c(SCC(=O)Nc2ccc3c(c2)oc2ccccc23)nnc1-c1ccccc1` [Compound 2193118], for which the midpoint of the response, the EC50, lay at 38.2 µM.

With `COc1ccc2nc(O)c(CN(C3CCCCC3)C(c3nnnn3Cc3ccco3)C(C)C)cc2c1` (stereo not shown) [Compound 650199], the EC50 turned out to be 13.3 µM. Compared with the last molecule, the EC50 is about 2.9-fold lower.

In turn, `Cc1nn2c(-c3cccc(NC(=O)CSc4nc5ccccc5o4)c3)nnc2c2ccccc12` [Compound 1290769] yielded an EC50 of 7.82 µM.

On to `CC1CCc2c(sc(NC(=O)c3ccc(Cn4cc(Br)cn4)o3)c2C(N)=O)C1` (stereo not shown) [Compound 2941732], for which the midpoint of the response, the EC50, lay at 35.6 µM.

`CCC1CCCCN1S(=O)(=O)c1ccc(S(=O)(=O)N2CCN(S(=O)(=O)CC)CC2)cc1` (stereo not shown) [Compound 651007]: the EC50 was 8.18 µM. This EC50 lies about 4.4-fold lower than the previous one.

For the molecule `C=CCOC(=O)C(C#N)c1nc2ccccc2nc1N1CCN(Cc2ccc3c(c2)OCO3)CC1` (stereo not shown) [Compound 660507], the EC50 is 18.5 µM.

Molecule `O=C1NC(=O)N(c2ccc(F)cc2)C(=O)/C1=C/c1ccc2c(c1)CCCN2Cc1ccccc1` [Compound 1997460] returned an EC50 of 6.23 µM.

`CCOc1ccc(-c2nnc3ccc(SCC(=O)Nc4nc5ccc(C)cc5s4)nn23)cc1` [Compound 12005911]: the midpoint of the response, the EC50, lay at 12.1 µM.

`O=C(Nc1ccc(Cl)cc1)[C@@H]1[C@@H]2C(=O)N(c3ccc(Cl)cc3Cl)C(=O)[C@@H]2[C@H]2C=CC=NN21` [Compound 9551824]: the response was half-maximal at 22.3 µM (EC50).

Turning to `Cc1cc(C=C2C(=O)CCCC2=O)c(C)n1-c1ccccc1` [Compound 2313216], the midpoint of the response, the EC50, lay at 28.3 µM. The EC50 values of the last two molecules are within 1.5-fold of each other.

In the case of `O=C(Nc1nc2c(s1)CCCC2)c1cc(-c2ccncc2)nc2ccccc12` [Compound 2462581], the EC50 was 12.6 µM.

In the case of `O=C(Cn1c2ccccc2c(=O)c2ccccc21)N/N=C/c1ccc(N2CCCC2)c([N+](=O)[O-])c1` [Compound 5347156], a half-maximal effect (EC50) was put at 13.7 µM.

With `CCN(CC)C(=O)c1sc(NC(=O)c2cc(-c3ccc(C)s3)nc3ccccc23)c(C(=O)OC)c1C` [Compound 1219756], the EC50 came out at 9.94 µM.

Turning to `O=C(COC(=O)c1c2c(nc3ccccc13)/C(=C/c1cccc([N+](=O)[O-])c1)CCC2)NC1CCS(=O)(=O)C1` (stereo not shown) [Compound 5950432], the concentration for a half-maximal effect (EC50) turned out to be 9.83 µM.

The molecule `CN(C)c1ccc(NC(=O)CN2C(=O)CC(c3ccccc3)=Nc3ccccc32)cc1` [Compound 656131] came in with an EC50 of 9.97 µM.

Molecule `O=C1c2cccc(OCC(=O)N3N=C(c4cccs4)CC3c3ccc(F)cc3)c2CCN1Cc1cccnc1` (stereo not shown) [Compound 4168394] came in with an EC50 of 8.85 µM.

`O=C(Nc1ccc2nn(-c3ccccc3)nc2c1)c1ccc2c(c1)OCO2` [Compound 2208079]: the 50% effective concentration (EC50) was determined as 568 µM.

`Cc1oc(-c2ccc(Cl)cc2)cc1-c1nn2c(-c3ccoc3C)nnc2s1` [Compound 2145570] registered an EC50 of 8.25 µM.

In turn, `O=C(N/N=C\C=C\c1ccco1)c1cc(-c2ccc3ccccc3c2)[nH]n1` [Compound 6030986] had an EC50 of 8.1 µM.

With `COCCNC(=S)N/N=C/c1ccc(OCc2ccc(C(=O)OC)cc2)cc1` [Compound 6892710], a half-maximal response (EC50) required 12.4 µM.

For `O=c1nc2s/c(=C\c3ccco3)c(=O)n2nc1Cc1ccc(F)cc1` [Compound 1844411], a half-maximal effect (EC50) was put at 7.04 µM.

For the molecule `COc1ccc2c(c1)cc(C)c1nnc(SCC(=O)N(C)c3nc(-c4ccccc4)cs3)n12` [Compound 1135734], the EC50 stood at 9.42 µM.

`CC1=NN(c2nc(-c3ccc(C)cc3)cs2)C(=O)C1N=Nc1ccc2ccccc2c1` (stereo not shown) [Compound 3101589] had an EC50 of 13.4 µM. The EC50 values of the last two molecules are within 1.5-fold of each other.

Molecule `NS(=O)(=O)c1ccc(NC(=S)NC(=O)c2ccc(-c3ccccc3)cc2)cc1` [Compound 1011163] registered an EC50 of 12.9 µM.

For the molecule `CCS(=O)(=O)N1CCC(C(=O)NCCCN2CCCCCC2)CC1` [Compound 3244583], the concentration for a half-maximal effect (EC50) came out at 9.7 µM.

The molecule `CC1CCN(Cc2ccc(NC(=O)C3CCN(c4nnc(-n5cccc5)s4)CC3)cc2)CC1` [Compound 5309189] had an EC50 of 14.2 µM.

For `COc1ccccc1-c1cc(C(=O)Nc2sc3c(c2C#N)CCC(C)C3)c2ccccc2n1` (stereo not shown) [Compound 3272728], the EC50 was determined as 10.8 µM.

In turn, `O=c1cc(CN2CCN(c3cccc(Cl)c3)CC2)c2cc(O)c(-c3ccccc3)cc2o1` [Compound 3287222] registered a concentration for a half-maximal effect (EC50) of 16.5 µM.

Molecule `COc1ccc2c(c1)c1nc3ccccc3nc1n2Cc1ccc(OC)c(OC)c1` [Compound 2023256] yielded an EC50 of 26.1 µM.

In the case of `Cc1ccccc1-c1ccc(Nc2ccc(N3CCOCC3)cc2)nn1` [Compound 646977], it took 10.1 µM to reach a half-maximal effect (EC50). This EC50 lies about 2.6-fold lower than the previous one.

Take `CC(=O)c1cccc(NC(=O)Nc2cc3sccc3n2C)c1` [Compound 5307308]: the EC50 was 18.7 µM.

In turn, `Cc1cc(=O)oc2cc(OCC(=O)N/N=C/c3ccccc3[N+](=O)[O-])ccc12` [Compound 9619223] had a concentration giving a half-maximal response (EC50) of 35.7 µM.

In the case of `O=C(N/N=C\c1ccc(-c2ccc([N+](=O)[O-])cc2)o1)c1ccc2c(c1)OCO2` [Compound 5497396], the midpoint of the response, the EC50, lay at 11.7 µM.

For the molecule `COC(=O)c1c(NC(=O)CN2CCC3(O)CCCCC3C2c2ccc(OC)cc2OC)sc(C)c1C` (stereo not shown) [Compound 4971819], the response was half-maximal at 60.2 µM (EC50). This EC50 lies about 5.1-fold higher than the previous one.

The molecule `O=C1NN(c2ccc(Cl)c(Cl)c2)C(=O)/C1=C/c1cccc(OC(=O)c2cccs2)c1` [Compound 1016780] registered an EC50 of 7.82 µM. Against the preceding molecule, the EC50 is about 7.7-fold lower.

For `O=C(CC1Nc2ccccc2NC1=O)Nc1ccccc1` (stereo not shown) [Compound 2829724], the EC50 turned out to be 18.3 µM.

For the molecule `COc1cc(/C=C2/SC(=S)N(c3ccccc3)C2=O)ccc1Oc1nc(N2CCOCC2)nc(N2CCOCC2)n1` [Compound 5343920], the “EC50 E320A” value is recorded as “Very Low”.

With `CCOC(=O)C1CCN(S(=O)(=O)c2ccc(-c3nc4ccccc4s3)s2)CC1` [Compound 3241379], a half-maximal response (EC50) required 12.6 µM.

Consider `COc1ccc(C2=Nc3nc(-c4ccccc4)cn3C(c3ccc(OC)cc3)C2)cc1` (stereo not shown) [Compound 4325421], for which the EC50 was 999 µM.

For the molecule `CCOC(=O)C(Cc1ccccc1)C(=O)Nc1ccc(NC(=O)C(Cc2ccccc2)C(=O)OCC)cc1` (stereo not shown) [Compound 2836867], the EC50 came to 121 µM.

`COc1cc2c(cc1NC(=O)c1cc(-c3ccncc3)nc3ccccc13)oc1ccccc12` [Compound 2098333] registered an EC50 of 0.441 µM.

Regarding `COc1ccc(C(=O)Nc2ccc(N3CCCC3)cc2)cc1` [Compound 960708], a half-maximal effect (EC50) was put at 101 µM.

In turn, `COc1ccc(-n2c(SCC(=O)Nc3nccs3)nc3sc4c(c3c2=O)CCN(C)C4)cc1` [Compound 664564] showed an EC50 of 20.4 µM.

For `Cc1ccc(/C=C/C(=O)Nc2nnc(SCc3ccc(C#N)cc3)s2)o1` [Compound 2126150], the “EC50 E320A” value is listed as “Infinite”.

Turning to `CCc1nc(SCC(=O)Nc2nnc(CC)s2)c2c(C)c(C)sc2n1` [Compound 3197508], the midpoint of the response, the EC50, lay at 8.48 µM.

The EC50 is the concentration at which the effect is half-maximal. Lower therefore signals higher potency in that assay.
